In the supplement of paper PMC10307832:

How the values were obtained:
Experiment in all cases: relative viability (nuclei count vs DMSO), 5 days (fraction); higher = more cells survive
NCI-H441 = test system: NCI-H441
Procedure, shortened: (§1)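 Five library-drug doses in √10 steps were combined with a fixed anchor-drug dose, or a single drug was given alone, by pin tool to lung cancer cell lines in 1536-well plates the day after seeding. Nuclei were stained and counted after 5 days. Relative viability is the nuclei count in treated wells over that in vehicle wells, taken as the median of duplicate plates.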

PC-3 [JPC-3] = test system: PC-3 [JPC-3]
Procedure, shortened: as §1

LK-2 = test system: LK-2
Procedure, shortened: as §1

EKVX = test system: EKVX
Procedure, shortened: as §1

NCI-H23 = test system: NCI-H23
Procedure, shortened: as §1

NCI-H596 = test system: NCI-H596
Procedure, shortened: as §1

NCI-H1975 = test system: NCI-H1975
Procedure, shortened: as §1

ChaGo-K-1 = test system: ChaGo-K-1
Procedure, shortened: as §1

COR-L 105 = test system: COR-L 105
Procedure, shortened: as §1

HCC-366 = test system: HCC-366
Procedure, shortened: as §1

LOU-NH91 = test system: LOU-NH91
Procedure, shortened: as §1

NCI-H2170 = test system: NCI-H2170
Procedure, shortened: as §1

A-427 = test system: A-427
Procedure, shortened: as §1

EMC-BAC-2 = test system: EMC-BAC-2
Procedure, shortened: as §1

NCI-H1734 = test system: NCI-H1734
Procedure, shortened: as §1

NCI-H520 = test system: NCI-H520
Procedure, shortened: as §1

NCI-H1755 = test system: NCI-H1755
Procedure, shortened: as §1

NCI-H1666 = test system: NCI-H1666
Procedure, shortened: as §1

SK-MES-1 = test system: SK-MES-1
Procedure, shortened: as §1

NCI-H1563 = test system: NCI-H1563
Procedure, shortened: as §1

H3255 = test system: H3255
Procedure, shortened: as §1

O=c1cc(N2CCOCC2)oc2c(-c3cccc4c3sc3ccccc34)cccc12 + C[C@@H](Oc1cc(-c2cnn(C3CCNCC3)c2)cnc1N)c1c(Cl)ccc(F)c1Cl [Crizotinib] (partner 1 µM)
relative viability (NCI-H441; first compound 0.01 µM): 0.841 | relative viability (NCI-H441; first compound 0.03162 µM): 0.785 | relative viability (NCI-H441; first compound 0.1 µM): 1.09 | relative viability (NCI-H441; first compound 0.3162 µM): 0.679 | relative viability (NCI-H441; first compound 1 µM): 0.756 | relative viability (PC-3 [JPC-3]; first compound 0.01 µM): 0.931 | relative viability (PC-3 [JPC-3]; first compound 0.03162 µM): 0.903 | relative viability (PC-3 [JPC-3]; first compound 0.1 µM): 0.938 | relative viability (PC-3 [JPC-3]; first compound 0.3162 µM): 0.941 | relative viability (PC-3 [JPC-3]; first compound 1 µM): 1.01 | relative viability (LK-2; first compound 0.01 µM): 0.227 | relative viability (LK-2; first compound 0.03162 µM): 0.258 | relative viability (LK-2; first compound 0.1 µM): 0.219 | relative viability (LK-2; first compound 0.3162 µM): 0.193 | relative viability (LK-2; first compound 1 µM): 0.243 | relative viability (EKVX; first compound 0.01 µM): 1.04 | relative viability (EKVX; first compound 0.03162 µM): 0.881 | relative viability (EKVX; first compound 0.1 µM): 1.18 | relative viability (EKVX; first compound 0.3162 µM): 0.915 | relative viability (EKVX; first compound 1 µM): 0.995 | relative viability (NCI-H23; first compound 0.01 µM): 0.59 | relative viability (NCI-H23; first compound 0.03162 µM): 0.586 | relative viability (NCI-H23; first compound 0.3162 µM): 0.508 | relative viability (NCI-H23; first compound 1 µM): 0.506 | relative viability (NCI-H596; first compound 0.01 µM): 0.992 | relative viability (NCI-H596; first compound 0.03162 µM): 0.997 | relative viability (NCI-H596; first compound 0.1 µM): 0.907 | relative viability (NCI-H596; first compound 0.3162 µM): 0.948 | relative viability (NCI-H596; first compound 1 µM): 0.882 | relative viability (NCI-H1975; first compound 0.01 µM): 0.862 | relative viability (NCI-H1975; first compound 0.03162 µM): 0.998 | relative viability (NCI-H1975; first compound 0.1 µM): 1.02 | relative viability (NCI-H1975; first compound 0.3162 µM): 0.808 | relative viability (NCI-H1975; first compound 1 µM): 0.984 | relative viability (ChaGo-K-1; first compound 0.01 µM): 1.17 | relative viability (ChaGo-K-1; first compound 0.03162 µM): 1.16 | relative viability (ChaGo-K-1; first compound 0.1 µM): 1.23 | relative viability (ChaGo-K-1; first compound 0.3162 µM): 1.08 | relative viability (ChaGo-K-1; first compound 1 µM): 1.08 | relative viability (COR-L 105; first compound 0.01 µM): 0.655 | relative viability (COR-L 105; first compound 0.03162 µM): 0.649 | relative viability (COR-L 105; first compound 0.1 µM): 0.856 | relative viability (COR-L 105; first compound 0.3162 µM): 0.724 | relative viability (COR-L 105; first compound 1 µM): 0.589 | relative viability (HCC-366; first compound 0.01 µM): 0.457 | relative viability (HCC-366; first compound 0.03162 µM): 0.506 | relative viability (HCC-366; first compound 0.1 µM): 0.66 | relative viability (HCC-366; first compound 0.3162 µM): 0.471 | relative viability (HCC-366; first compound 1 µM): 0.598 | relative viability (LOU-NH91; first compound 0.01 µM): 0.705 | relative viability (LOU-NH91; first compound 0.03162 µM): 0.695 | relative viability (LOU-NH91; first compound 0.1 µM): 0.717 | relative viability (LOU-NH91; first compound 0.3162 µM): 0.738 | relative viability (LOU-NH91; first compound 1 µM): 0.698 | relative viability (NCI-H2170; first compound 0.01 µM): 1.24 | relative viability (NCI-H2170; first compound 0.03162 µM): 1.17 | relative viability (NCI-H2170; first compound 0.1 µM): 1.24 | relative viability (NCI-H2170; first compound 0.3162 µM): 1.12 | relative viability (NCI-H2170; first compound 1 µM): 1.17 | relative viability (A-427; first compound 0.01 µM): 0.983 | relative viability (A-427; first compound 0.03162 µM): 0.851 | relative viability (A-427; first compound 0.1 µM): 0.807 | relative viability (A-427; first compound 0.3162 µM): 0.787 | relative viability (A-427; first compound 1 µM): 0.925 | relative viability (EMC-BAC-2; first compound 0.01 µM): 0.787 | relative viability (EMC-BAC-2; first compound 0.03162 µM): 0.788 | relative viability (EMC-BAC-2; first compound 0.1 µM): 0.847 | relative viability (EMC-BAC-2; first compound 0.3162 µM): 0.77 | relative viability (EMC-BAC-2; first compound 1 µM): 0.735 | relative viability (NCI-H1734; first compound 0.01 µM): 0.766 | relative viability (NCI-H1734; first compound 0.03162 µM): 0.678 | relative viability (NCI-H1734; first compound 0.1 µM): 0.699 | relative viability (NCI-H1734; first compound 0.3162 µM): 0.61 | relative viability (NCI-H1734; first compound 1 µM): 0.642 | relative viability (NCI-H520; first compound 0.01 µM): 0.824 | relative viability (NCI-H520; first compound 0.03162 µM): 0.739 | relative viability (NCI-H520; first compound 0.1 µM): 1.04 | relative viability (NCI-H520; first compound 0.3162 µM): 0.697 | relative viability (NCI-H520; first compound 1 µM): 0.825 | relative viability (NCI-H1755; first compound 0.01 µM): 0.875 | relative viability (NCI-H1755; first compound 0.03162 µM): 0.812 | relative viability (NCI-H1755; first compound 0.1 µM): 0.838 | relative viability (NCI-H1755; first compound 0.3162 µM): 0.807 | relative viability (NCI-H1755; first compound 1 µM): 0.767 | relative viability (NCI-H1666; first compound 0.01 µM): 0.971 | relative viability (NCI-H1666; first compound 0.03162 µM): 1.05 | relative viability (NCI-H1666; first compound 0.1 µM): 0.905 | relative viability (NCI-H1666; first compound 0.3162 µM): 0.941 | relative viability (NCI-H1666; first compound 1 µM): 0.812 | relative viability (SK-MES-1; first compound 0.01 µM): 0.965 | relative viability (SK-MES-1; first compound 0.03162 µM): 0.991 | relative viability (SK-MES-1; first compound 0.1 µM): 1.01 | relative viability (SK-MES-1; first compound 0.3162 µM): 1.01 | relative viability (SK-MES-1; first compound 1 µM): 1.04 | relative viability (NCI-H1563; first compound 0.01 µM): 0.809 | relative viability (NCI-H1563; first compound 0.03162 µM): 0.795 | relative viability (NCI-H1563; first compound 0.1 µM): 0.848 | relative viability (NCI-H1563; first compound 0.3162 µM): 0.711 | relative viability (NCI-H1563; first compound 1 µM): 0.82 | relative viability (H3255; first compound 0.01 µM): 0.871 | relative viability (H3255; first compound 0.03162 µM): 1.05 | relative viability (H3255; first compound 0.1 µM): 0.971 | relative viability (H3255; first compound 0.3162 µM): 0.926 | relative viability (H3255; first compound 1 µM): 0.769
